Structures are written as SMILES.

From patent US11000033B2, “Ketone or oxime compound, and herbicide” (NISSAN CHEMICAL CORPORATION, priority 2014, dated 2021) come the findings set out here.

What all share (type): in vivo
The test system of data set [1] is rice. Kind of data set: Test Example 4: effect on crop by soil treatment (symbol b). The note with it: application herbicide amount 320 g/ha. The procedure, abridged:
(§1)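 Greenhouse culture at 25° C. to 30° C. followed sowing of seed in spots on sterilized diluvial soil with a soil cover close to 1.5 cm thick.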

Data set [2] deals with Amaranthus retroflexus. Kind of data set: Test Example 4: herbicidal effect by soil treatment (symbol N). The note with it: application herbicide amount 320 g/ha. The procedure, abridged: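 Seeds were sown in sterilized diluvial soil, covered with about 1.5 cm of soil, and the soil surface was sprayed with a water-diluted emulsion of the compound at a predetermined rate. Plants grew in a greenhouse at 25° C. to 30° C.; effects were scored visually 3 weeks after application.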

The test system of data set [3] is Monochoria vaginalis. Put plainly: Test Example 2: herbicidal activity, application during weed generation in submerged conditions (symbol C). The note with it: Table 23; application herbicide amount 320 g/ha; grade 0-5 by criteria of Test Example 1. In outline:
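Each pot contained alluvial soil under 4 cm of water with seeds of all three weeds sown together. Following growth at 25° C. to 30° C. to the one- to two-leaf stage, the floodwater received diluted emulsion at a predetermined amount; visual assessment followed at 3 weeks.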

The subject of data set [4] is soybean. Put plainly: Test Example 4: effect on crop by soil treatment (symbol d). The note with it: application herbicide amount 320 g/ha. The procedure, abridged:
as §1

Data set [5] deals with wheat. Kind of data set: Test Example 5: effect on crop by foliage application, plastic box (symbol e). The note with it: 320 g/ha, 3 weeks after application. The procedure, abridged: (§2)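 A greenhouse held between 25° C. and 30° C. was used to grow plants sown spot-wise, beneath ~1.5 cm of soil, in boxes of sterilized diluvial soil.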
The subject of data set [6] is rice plant. Put plainly: Test Example 5: effect on crop by foliage application, plastic box (symbol b). The note with it: 320 g/ha, 3 weeks after application. The procedure, abridged:
as §2

For data set [7], the system named is corn. Put plainly: Test Example 4: effect on crop by soil treatment (symbol c). The note with it: application herbicide amount 320 g/ha. The procedure, abridged:
as §1

As for `CON=C(C)CC1CC(OC(=O)COc2ccccc2)=C(c2c(C)cc(-c3ccc(Cl)cc3)cc2OC)C1=O` (centres unmarked) [6-079], the “b: directly sowed rice plant, effect on crop grade” value in data set [1] was 3 (Herbicidal ratio of 40% or higher and lower than 70%). Also, the “N: Amaranthus retroflexus, herbicidal effect grade” value in data set [2] is 4 (Herbicidal ratio of 70% or higher and lower than 90%). In addition, in data set [3], the “Herbicidal effect grade, C: Monochoria vaginalis” value (from here on “Herbicidal effect grade, C”) was 3 (Herbicidal ratio of 40% or higher and lower than 70%). Besides, in data set [4], the “d: soybean, effect on crop grade” value is 0 (Herbicidal ratio of 5% or lower (almost no effect)). Moreover, the “e: wheat, effect on crop (criteria of Test Example 1)” value in data set [5] was 5 (Herbicidal ratio of 90% or more (almost completely withered)). The “b: directly sowed rice plant, effect on crop (criteria of Test Example 1)” value in data set [6] is on record as 5 (Herbicidal ratio of 90% or more (almost completely withered)). Besides, the “c: corn, effect on crop grade” value in data set [7] is given as 0 (Herbicidal ratio of 5% or lower (almost no effect)).
Turning to `CON=C(C)CC1CC(O)=C(c2c(C)cc(C(C)=NOC)cc2C)C1=O` (centres unmarked) [6-065], the “b: directly sowed rice plant, effect on crop grade” value in data set [1] is on record as 5 (Herbicidal ratio of 90% or more (almost completely withered)). Moreover, the “N: Amaranthus retroflexus, herbicidal effect grade” value in data set [2] was 4 (Herbicidal ratio of 70% or higher and lower than 90%). Besides, in data set [3], the “Herbicidal effect grade, C” value was 2 (Herbicidal ratio of 20% or higher and lower than 40%). Besides, the “d: soybean, effect on crop grade” value in data set [4] is 0 (Herbicidal ratio of 5% or lower (almost no effect)). In addition, in data set [5], the “e: wheat, effect on crop (criteria of Test Example 1)” value is given as 5 (Herbicidal ratio of 90% or more (almost completely withered)). Also, in data set [6], the “b: directly sowed rice plant, effect on crop (criteria of Test Example 1)” value was 5 (Herbicidal ratio of 90% or more (almost completely withered)). In addition, in data set [7], the “c: corn, effect on crop grade” value is 5 (Herbicidal ratio of 90% or more (almost completely withered)).
On to `CON=C(C)CC1CC(OC(=O)N2CCOCC2)=C(c2c(C)cc(-c3ccc(F)c(Cl)c3)cc2C)C1=O` (centres unmarked) [6-093], for which the “Effect on crop grade, b: directly sowed rice plant” value (shortened to “Effect on crop grade, b”) in data set [1] was 1 (Herbicidal ratio of 5% or higher and lower than 20%). In data set [2], the “Herbicidal effect grade, N: Amaranthus retroflexus” value (shortened to “Herbicidal effect grade, N”) is on record as 0 (Herbicidal ratio of 5% or lower (almost no effect)). The “Herbicidal effect grade, C” value in data set [3] is 3 (Herbicidal ratio of 40% or higher and lower than 70%). The “Effect on crop grade, d: soybean” value in data set [4] is reported as 0 (Herbicidal ratio of 5% or lower (almost no effect)). Besides, the “e: wheat, effect on crop (criteria of Test Example 1)” value in data set [5] is 5 (Herbicidal ratio of 90% or more (almost completely withered)). Also, the “b: directly sowed rice plant, effect on crop (criteria of Test Example 1)” value in data set [6] was 4 (Herbicidal ratio of 70% or higher and lower than 90%). Further, the “Effect on crop grade, c: corn” value in data set [7] is on record as 0 (Herbicidal ratio of 5% or lower (almost no effect)).
As for `CON=C(C)CC1CC(OC(=O)COc2ccccc2)=C(c2c(C)cc(-c3ccc(Cl)cc3)cc2C)C1=O` (mixture of isomers) [6-061], the “b: directly sowed rice plant, effect on crop grade” value in data set [1] was 5 (Herbicidal ratio of 90% or more (almost completely withered)). In data set [2], the “N: Amaranthus retroflexus, herbicidal effect grade” value is 3 (Herbicidal ratio of 40% or higher and lower than 70%). Further, in data set [3], the “Herbicidal effect grade, C” value was 2 (Herbicidal ratio of 20% or higher and lower than 40%). Moreover, the “d: soybean, effect on crop grade” value in data set [4] is given as 0 (Herbicidal ratio of 5% or lower (almost no effect)). The “e: wheat, effect on crop (criteria of Test Example 1)” value in data set [5] is 5 (Herbicidal ratio of 90% or more (almost completely withered)). Moreover, the “b: directly sowed rice plant, effect on crop (criteria of Test Example 1)” value in data set [6] is 5 (Herbicidal ratio of 90% or more (almost completely withered)). In data set [7], the “c: corn, effect on crop grade” value was 0 (Herbicidal ratio of 5% or lower (almost no effect)).
In the case of `CCc1cc(-c2ccc(Cl)cc2)cc(C)c1C1=C(OC(=O)N2CCOCC2)CC(CC(C)=NOC)C1=O` (mixture of isomers) [6-064], the “b: directly sowed rice plant, effect on crop grade” value in data set [1] is 0 (Herbicidal ratio of 5% or lower (almost no effect)). Besides, the “N: Amaranthus retroflexus, herbicidal effect grade” value in data set [2] is 0 (Herbicidal ratio of 5% or lower (almost no effect)). Also, the “Herbicidal effect grade, C” value in data set [3] was 0 (Herbicidal ratio of 5% or lower (almost no effect)). Moreover, in data set [4], the “d: soybean, effect on crop grade” value was 0 (Herbicidal ratio of 5% or lower (almost no effect)). Besides, the “e: wheat, effect on crop (criteria of Test Example 1)” value in data set [5] is 5 (Herbicidal ratio of 90% or more (almost completely withered)). Moreover, in data set [6], the “b: directly sowed rice plant, effect on crop (criteria of Test Example 1)” value is given as 5 (Herbicidal ratio of 90% or more (almost completely withered)). Also, the “c: corn, effect on crop grade” value in data set [7] is 0 (Herbicidal ratio of 5% or lower (almost no effect)).
`COc1cc(C)c(C2=C(O)CC(CC(C)=O)C2=O)c(C)c1` (centres unmarked) [7-020]: the “Effect on crop grade, b” value in data set [1] is listed as 5 (Herbicidal ratio of 90% or more (almost completely withered)). The “Herbicidal effect grade, N” value in data set [2] was 0 (Herbicidal ratio of 5% or lower (almost no effect)). Besides, the “Herbicidal effect grade, C” value in data set [3] is 0 (Herbicidal ratio of 5% or lower (almost no effect)). Besides, in data set [4], the “Effect on crop grade, d: soybean” value was 0 (Herbicidal ratio of 5% or lower (almost no effect)). Moreover, the “e: wheat, effect on crop (criteria of Test Example 1)” value in data set [5] was 0 (Herbicidal ratio of 5% or lower (almost no effect)). Moreover, in data set [6], the “b: directly sowed rice plant, effect on crop (criteria of Test Example 1)” value was 3 (Herbicidal ratio of 40% or higher and lower than 70%). For the same compound, the “Effect on crop grade, c: corn” value in data set [7] is 0 (Herbicidal ratio of 5% or lower (almost no effect)).
Take `CON=C(C)C(=NOC)C1CC(O)=C(c2c(C)cc(C)cc2C)C1=O` (centres unmarked) [8-003]: in data set [1], the “Effect on crop grade, b” value is listed as 0 (Herbicidal ratio of 5% or lower (almost no effect)). Besides, the “Herbicidal effect grade, N” value in data set [2] is 0 (Herbicidal ratio of 5% or lower (almost no effect)). Moreover, the “Herbicidal effect grade, C” value in data set [3] is listed as 0 (Herbicidal ratio of 5% or lower (almost no effect)). Also, the “Effect on crop grade, d: soybean” value in data set [4] is 0 (Herbicidal ratio of 5% or lower (almost no effect)). The “e: wheat, effect on crop grade” value in data set [5] is 0 (Herbicidal ratio of 5% or lower (almost no effect)). In addition, the “b: directly sowed rice plant, effect on crop grade” value in data set [6] is on record as 0 (Herbicidal ratio of 5% or lower (almost no effect)). Moreover, the “Effect on crop grade, c: corn” value in data set [7] is 0 (Herbicidal ratio of 5% or lower (almost no effect)).
Consider `CON=C(C)CC1CC(O)=C(c2c(C)cc(-c3cc(F)c(F)c(F)c3)cc2C)C1=O` (centres unmarked) [6-104], for which, in data set [1], the “Effect on crop grade, b” value is listed as 5 (Herbicidal ratio of 90% or more (almost completely withered)). Moreover, the “Herbicidal effect grade, N” value in data set [2] is 5 (Herbicidal ratio of 90% or more (almost completely withered)). Further, in data set [3], the “Herbicidal effect grade, C” value is on record as 5 (Herbicidal ratio of 90% or more (almost completely withered)). Moreover, the “Effect on crop grade, d: soybean” value in data set [4] is on record as 0 (Herbicidal ratio of 5% or lower (almost no effect)). Moreover, the “e: wheat, effect on crop (criteria of Test Example 1)” value in data set [5] is reported as 5 (Herbicidal ratio of 90% or more (almost completely withered)). Moreover, the “b: directly sowed rice plant, effect on crop (criteria of Test Example 1)” value in data set [6] is on record as 5 (Herbicidal ratio of 90% or more (almost completely withered)). Further, in data set [7], the “Effect on crop grade, c: corn” value is 5 (Herbicidal ratio of 90% or more (almost completely withered)).
`CC(=O)CC1CC(O)=C(c2c(C)cc(OCc3ccccc3)cc2C)C1=O` (centres unmarked) [7-018]: in data set [1], the “Effect on crop grade, b” value is given as 0 (Herbicidal ratio of 5% or lower (almost no effect)). In data set [2], the “Herbicidal effect grade, N” value is on record as 0 (Herbicidal ratio of 5% or lower (almost no effect)). Also, the “Herbicidal effect grade, C” value in data set [3] is 0 (Herbicidal ratio of 5% or lower (almost no effect)). The “Effect on crop grade, d: soybean” value in data set [4] is 0 (Herbicidal ratio of 5% or lower (almost no effect)). For the same compound, the “e: wheat, effect on crop (criteria of Test Example 1)” value in data set [5] is reported as 0 (Herbicidal ratio of 5% or lower (almost no effect)). Moreover, the “b: directly sowed rice plant, effect on crop (criteria of Test Example 1)” value in data set [6] is 2 (Herbicidal ratio of 20% or higher and lower than 40%). Besides, the “Effect on crop grade, c: corn” value in data set [7] is 0 (Herbicidal ratio of 5% or lower (almost no effect)).
On to `CC(CC1CC(O)=C(c2c(C)cc(C)cc2C)C1=O)=NOCc1ccccc1` (centres unmarked) [1-020], for which the “b (directly sowed rice plant) effect on crop grade” value in data set [1] is reported as 5 (Herbicidal ratio of 90% or more (almost completely withered)). Also, in data set [2], the “N (Amaranthus retroflexus) herbicidal effect grade” value is recorded as 0 (Herbicidal ratio of 5% or lower (almost no effect)). In addition, in data set [3], the “Herbicidal effect grade, C” value is 2 (Herbicidal ratio of 20% or higher and lower than 40%). For the same compound, in data set [4], the “d (soybean) effect on crop grade” value was 0 (Herbicidal ratio of 5% or lower (almost no effect)). The “e: wheat, effect on crop grade” value in data set [5] is listed as 5 (Herbicidal ratio of 90% or more (almost completely withered)). Further, the “b: directly sowed rice plant, effect on crop grade” value in data set [6] is listed as 5 (Herbicidal ratio of 90% or more (almost completely withered)). Further, in data set [7], the “c (corn) effect on crop grade” value was 1 (Herbicidal ratio of 5% or higher and lower than 20%).
Regarding `CC(=O)CC1CC(O)=C(c2c(C)cc(-c3ccccn3)cc2C)C1=O` (centres unmarked) [7-012], the “Effect on crop grade, b” value in data set [1] is 5 (Herbicidal ratio of 90% or more (almost completely withered)). The “Herbicidal effect grade, N” value in data set [2] is on record as 0 (Herbicidal ratio of 5% or lower (almost no effect)). Besides, the “Herbicidal effect grade, C” value in data set [3] is 0 (Herbicidal ratio of 5% or lower (almost no effect)). In addition, the “Effect on crop grade, d: soybean” value in data set [4] is reported as 0 (Herbicidal ratio of 5% or lower (almost no effect)). Also, the “e: wheat, effect on crop (criteria of Test Example 1)” value in data set [5] was 1 (Herbicidal ratio of 5% or higher and lower than 20%). For the same compound, the “b: directly sowed rice plant, effect on crop (criteria of Test Example 1)” value in data set [6] is 5 (Herbicidal ratio of 90% or more (almost completely withered)). Further, in data set [7], the “Effect on crop grade, c: corn” value is recorded as 0 (Herbicidal ratio of 5% or lower (almost no effect)).
